Assay in all cases: KinomeScan profiling
What all share (format): binding

Test [1] addresses T1, RSK1(Kin.Dom.1-N-terminal) (Homo sapiens, UniProt Q15418).
T1 construct: RSK1(Kin.Dom.1-N-terminal)
As to conditions: read-out: % control. In a few lines: (§1)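 Compounds were screened at 1 μM in DMSO across a 468-kinase KinomeScan panel. Binding was expressed as % control, scaled between a positive control (0%) and DMSO (100%) using luminescence signal. A value under 35% counted as active.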

In test [2] the target is T2, GRK3 (Homo sapiens, UniProt P35626).
T2 sequence (P35626 1-688): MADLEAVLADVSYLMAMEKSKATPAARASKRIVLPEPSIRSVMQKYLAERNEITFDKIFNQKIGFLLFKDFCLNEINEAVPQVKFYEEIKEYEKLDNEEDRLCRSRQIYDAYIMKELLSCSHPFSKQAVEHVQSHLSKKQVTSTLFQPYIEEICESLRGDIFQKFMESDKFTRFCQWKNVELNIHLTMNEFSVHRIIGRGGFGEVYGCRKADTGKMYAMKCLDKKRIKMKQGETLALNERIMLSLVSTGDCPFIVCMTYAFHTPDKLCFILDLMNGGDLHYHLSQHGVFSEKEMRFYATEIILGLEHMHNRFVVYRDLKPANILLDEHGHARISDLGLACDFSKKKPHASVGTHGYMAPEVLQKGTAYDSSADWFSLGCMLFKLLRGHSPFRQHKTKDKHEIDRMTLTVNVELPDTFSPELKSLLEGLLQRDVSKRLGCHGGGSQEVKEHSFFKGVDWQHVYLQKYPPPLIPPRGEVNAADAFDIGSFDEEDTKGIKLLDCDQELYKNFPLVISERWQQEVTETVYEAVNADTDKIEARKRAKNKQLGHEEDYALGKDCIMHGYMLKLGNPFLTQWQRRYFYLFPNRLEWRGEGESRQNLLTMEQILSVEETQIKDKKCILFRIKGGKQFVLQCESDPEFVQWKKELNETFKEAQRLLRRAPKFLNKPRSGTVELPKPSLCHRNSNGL
The note with it: GRK3, 1 μM; read-out: % control. The procedure, abridged:
as §1

Test [3] deals with T3, ASK1 (Homo sapiens, UniProt Q99683).
T3 construct: purchased KinomeScan®
T3 sequence (Q99683 1-1374): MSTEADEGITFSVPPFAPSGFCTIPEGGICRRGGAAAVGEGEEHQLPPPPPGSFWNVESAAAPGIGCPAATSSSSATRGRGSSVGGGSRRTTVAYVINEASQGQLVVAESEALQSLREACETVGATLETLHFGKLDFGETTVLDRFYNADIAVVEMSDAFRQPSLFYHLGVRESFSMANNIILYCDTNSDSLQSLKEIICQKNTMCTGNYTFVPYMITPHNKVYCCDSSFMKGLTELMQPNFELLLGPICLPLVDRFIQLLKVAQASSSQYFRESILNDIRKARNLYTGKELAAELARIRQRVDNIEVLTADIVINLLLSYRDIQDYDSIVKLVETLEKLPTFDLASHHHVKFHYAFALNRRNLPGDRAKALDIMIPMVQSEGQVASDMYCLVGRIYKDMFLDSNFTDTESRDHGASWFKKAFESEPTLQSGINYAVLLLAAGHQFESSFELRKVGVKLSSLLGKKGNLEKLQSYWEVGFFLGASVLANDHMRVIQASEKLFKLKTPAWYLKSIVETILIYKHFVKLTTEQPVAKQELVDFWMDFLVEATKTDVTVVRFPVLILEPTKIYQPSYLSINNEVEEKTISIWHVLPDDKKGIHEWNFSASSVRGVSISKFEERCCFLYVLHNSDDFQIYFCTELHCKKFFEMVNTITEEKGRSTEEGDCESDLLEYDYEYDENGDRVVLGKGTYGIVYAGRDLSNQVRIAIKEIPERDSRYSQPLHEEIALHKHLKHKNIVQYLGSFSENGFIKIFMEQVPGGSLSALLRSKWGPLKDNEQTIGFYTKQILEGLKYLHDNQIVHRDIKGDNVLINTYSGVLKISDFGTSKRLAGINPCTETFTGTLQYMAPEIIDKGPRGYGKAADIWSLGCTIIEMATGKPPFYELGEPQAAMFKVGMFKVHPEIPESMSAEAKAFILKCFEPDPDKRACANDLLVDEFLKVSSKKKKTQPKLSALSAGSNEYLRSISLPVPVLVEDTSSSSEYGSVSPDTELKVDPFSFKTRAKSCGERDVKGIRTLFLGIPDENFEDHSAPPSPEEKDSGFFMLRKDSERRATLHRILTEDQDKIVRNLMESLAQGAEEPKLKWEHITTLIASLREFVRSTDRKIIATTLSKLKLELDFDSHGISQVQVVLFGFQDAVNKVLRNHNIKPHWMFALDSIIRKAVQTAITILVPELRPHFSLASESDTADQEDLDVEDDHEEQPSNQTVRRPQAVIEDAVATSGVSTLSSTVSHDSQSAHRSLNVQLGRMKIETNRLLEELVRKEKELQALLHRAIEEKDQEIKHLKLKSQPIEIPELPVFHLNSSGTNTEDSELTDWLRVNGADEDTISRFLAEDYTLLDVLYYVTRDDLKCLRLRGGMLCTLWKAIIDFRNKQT
The note with it: ASK1, 1 μM; read-out: % control. The procedure, abridged: as §1

Test [4] has as its target EGFR(L747-E749del, A750P) (Homo sapiens, UniProt P00533, A750P/DEL747-749). The note with it: read-out: % control. The procedure, abridged:
as §1

These results are taken from patent US12275731B2, “Azaindole inhibitors of wild-type and mutant forms of LRRK2” (DANA-FARBER CANCER INSTITUTE, INC., priority 2018, dated 2025).

Chain of EGFR(L747-E749del, A750P) (P00533 with tags, fused parts or gaps DEL747-749/A750P): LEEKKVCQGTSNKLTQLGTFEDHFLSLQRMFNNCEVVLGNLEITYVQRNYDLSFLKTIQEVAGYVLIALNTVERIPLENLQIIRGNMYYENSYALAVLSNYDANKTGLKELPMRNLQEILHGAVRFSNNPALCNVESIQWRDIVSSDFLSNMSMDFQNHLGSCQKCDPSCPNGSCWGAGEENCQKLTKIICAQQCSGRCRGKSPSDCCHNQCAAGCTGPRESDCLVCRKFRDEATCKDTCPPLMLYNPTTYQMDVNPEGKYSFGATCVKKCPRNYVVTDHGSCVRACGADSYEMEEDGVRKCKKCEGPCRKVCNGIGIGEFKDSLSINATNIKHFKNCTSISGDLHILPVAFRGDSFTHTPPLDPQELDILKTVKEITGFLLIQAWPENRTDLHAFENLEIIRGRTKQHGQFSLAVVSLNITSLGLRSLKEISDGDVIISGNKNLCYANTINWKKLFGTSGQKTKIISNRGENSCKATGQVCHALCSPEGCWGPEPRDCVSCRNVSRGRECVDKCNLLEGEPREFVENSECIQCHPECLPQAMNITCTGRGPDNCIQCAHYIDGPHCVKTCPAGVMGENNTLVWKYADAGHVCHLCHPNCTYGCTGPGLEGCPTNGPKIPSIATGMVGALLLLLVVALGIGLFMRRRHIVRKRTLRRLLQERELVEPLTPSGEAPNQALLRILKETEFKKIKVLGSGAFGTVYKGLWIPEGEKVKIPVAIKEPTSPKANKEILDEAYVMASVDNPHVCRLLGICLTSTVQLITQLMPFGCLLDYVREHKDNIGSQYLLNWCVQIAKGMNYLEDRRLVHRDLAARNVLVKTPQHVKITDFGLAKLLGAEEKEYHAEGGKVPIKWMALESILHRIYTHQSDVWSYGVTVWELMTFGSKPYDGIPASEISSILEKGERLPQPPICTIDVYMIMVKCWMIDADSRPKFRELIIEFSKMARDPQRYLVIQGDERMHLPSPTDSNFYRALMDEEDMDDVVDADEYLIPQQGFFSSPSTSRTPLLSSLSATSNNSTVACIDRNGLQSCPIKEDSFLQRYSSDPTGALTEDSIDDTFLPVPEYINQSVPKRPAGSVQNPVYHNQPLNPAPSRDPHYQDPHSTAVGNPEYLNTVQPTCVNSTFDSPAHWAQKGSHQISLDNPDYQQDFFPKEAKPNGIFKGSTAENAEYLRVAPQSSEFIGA
T1 sequence (Q15418 62-321 limits assumed): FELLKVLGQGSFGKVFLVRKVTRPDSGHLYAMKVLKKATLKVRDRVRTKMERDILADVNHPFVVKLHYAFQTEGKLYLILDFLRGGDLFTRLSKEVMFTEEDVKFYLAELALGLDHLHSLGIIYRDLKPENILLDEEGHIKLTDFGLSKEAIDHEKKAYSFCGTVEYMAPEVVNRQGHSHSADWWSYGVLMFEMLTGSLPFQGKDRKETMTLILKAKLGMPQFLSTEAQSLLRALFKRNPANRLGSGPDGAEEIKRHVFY

As for `CNc1c(-c2ccc(C(=O)N3CCC(N4CCOCC4)CC3)cc2)cnc2[nH]cc(Cl)c12` [Compound 96, (4-(3-chloro-4-(methylamino)-1H-pyrrolo[2,3-b]pyridin-5-yl)phenyl)(4-morpholinopiperidin-1-yl)methanone], the remaining binding at 1 µM in test [1] was found to be 100%; in test [2] it was 92%; in test [3] it was 5.9%; in test [4], 100%.
With `O=C(c1ccc(-c2cnc3[nH]cc(Cl)c3c2NC2CCCC2)cc1)N1CCC(N2CCOCC2)CC1` [Compound 101, (4-(3-chloro-4-(cyclopentylamino)-1H-pyrrolo[2,3-b]pyridin-5-yl)phenyl)(4-morpholinopiperidin-1-yl)methanone], the remaining binding at 1 µM in test [1] was 80%; in test [2] it was 94%; in test [3], 94%; in test [4] it was 88%.
Consider `CNc1c(-c2cnn([C@H]3CCN(C(C)=O)C[C@@H]3F)c2)cnc2[nH]cc(Cl)c12` [Compound 77, 1-((3S,4S)-4-(4-(3-chloro-4-(methylamino)-1H-pyrrolo[2,3-b]pyridin-5-yl)-1H-pyrazol-1-yl)-3-fluoropiperidin-1-yl)ethan-1-one], for which the remaining binding at 1 µM in test [1] was 93%; in test [2] it was 93%; in test [3] it was 4.3%; in test [4] it was 100%.
